According to patent US20050069544A1, “Pharmaceutical composition and a method of treatment” (priority 1998, published 2005):
“Also recorded” adds a separate entry of the source.

Key:
Assay type in all cases: cell-based, human
[1] = tested on: T-cells from AIHA patients; test: Cell proliferation assay of PBMC/T-cells from autoimmune haemolytic anaemia patients; settings: for proliferative T-cell response to RhD peptides: AIHA patients, FIG. 17A; for proliferative T-cell response to ce peptides: RhD-negative AIHA subjects, FIG. 17B
Procedure: (§1) PBMC were cultured in 100 μl volumes in microtitre plates at a concentration of 1.25×10^6 cells/ml in an Alpha Modification of Eagle's Medium (ICN Flow, Bucks UK) supplemented with 5% autologous serum, 4 mM L-Glutamine (Gibco, Paisley, UK), 100 U/ml sodium benzylpenicillin G (Sigma), 100 μg/ml streptomycin sulphate (Sigma), 5×10^−5M 2-mercaptoethanol (Sigma) and 20 mM HEPES pH7,2 (Sigma). All plates were incubated at 37° C. in a humidified atmosphere of 5% CO2/95% air. The cell proliferation in cultures was estimated from the incorporation of ^3H-Thymidine in triplicate wells 5 days after stimulation with antigen as described previously. Proliferation results are presented either as the mean CPM+/−SD of the triplicate samples, or as a stimulation index (SI), expressing the ratio of mean CPM in stimulated versus unstimulated control cultures. An S1>3 with CPM>1000 is interpreted as representing a positive response.
The experiments mentioned in Example 1.1 were repeated using blood from subjects suffering from autoimmune haemolytic anaemia.
These experiments can be carried out using other rhesus proteins, such as RhcE, Rhce, RhCe or RhCE protein. T-cells from RhD-negative subjects suffering AIHA were tested with the panel of ce peptides (Table 3).

[2] = tested on: PBMC from RhD alloimmunised donors; test: Cell proliferation assay (3H-thymidine) of PBMC from RhD alloimmunised donors stimulated with RhD peptides; settings: peptide 20 μg/ml, 5 days
Procedure: Five complete panels of 68 15-mer peptides, with 5 or 10 amino acid overlaps, were synthesized (Multiple Peptide Service, Cambridge Research Biochemicals, Cheshire, UK and Dept. Of Biochemistry, University of Bristol, UK), corresponding to the sequences of the 30 kD Rh proteins associated with expression of the RhD or RhcE/ce/Ce/CE blood group antigens respectively (Tables 1 to 5). An additional three peptide sequences is added to the panel of RhD peptides to account for the Ile to Met substitution described earlier (numbered from 69 to 71). The amino acid sequences for each of these proteins were deduced from cDNA analyses (FIG. 1). In order to ensure purity, each panel was synthesized by fluorenylmethoxycarbonyl chemistry on resin using a base-labile linker, rather than by conventional pin technology, and randomly selected peptides were screened for purity by HPLC and amino acid analysis.
Peripheral blood mononuclear cells (PBMC) from donors or patients were separated from fresh blood samples using Ficoll-Hypaque. The donors and patients had become alloimmunised with RhD-positive blood either through pregnancy, a blood transfusion or through immunization with the relevant blood.
as §1

[3] = tested on: PBMC from RhD-alloimmunised donors; test: celELISA of cytokine production (IL-10, TGF-β1) by PBMC from RhD alloimmunised donors; settings: for IL-10 production by PBMC: FIG. 3 and FIG. 10; for TGF-β1 production by PBMC: FIG. 3 and FIG. 11
Procedure: Cultured T-cells are stimulated with each of the epitopes given in Table 1 and after 5 days the responding cells were transferred to flat-bottomed microtitre plates (96-well Nunc-Immuno Maxisorp) coated with […] per well of monoclonal anti-cytokine capture antibody diluted in 0.05M alkaline carbonate coating buffer pH 9.6. Unbound capture antibody was removed by two washes with HBSS and non-specific binding potential blocked by incubation with 200 μl per well of phosphate buffered saline, pH 7.4 (PBS containing 3% BSA).
Five days after stimulation, lymphocyte cultures were mixed to resuspend the cells and duplicate 100 μl aliquots were transferred into wells coated with the respective capture antibody specific for IFN-γ, IL-10 or TGF-β. The plates coated with capture antibodies and layered by lymphocytes were then incubated for a further 24 hours at 37° C. in a humidified atmosphere of 5% CO2 and 95% air. After this incubation the PBMC were removed by four washes with 0.2% Tween/PBS. One hundred microlitre aliquots of the appropriate biotinylated monoclonal detection antibody in 0.2% BSA/PBS were then added to the wells and incubated at room temperature for 45 minutes.
After six washes with 0.5% Tween/PBS, 100 μl of 1:100,000 ExtrAvidin-alkaline phosphatase conjugate (Sigma) was then added to each of the wells and incubated at room temperature for 30 minutes. The ExtrAvidin conjugate was removed by eight washes with 0.2% Tween/PBS, and the plates developed using 100 μl per well of p-nitrophenyl phosphate (Sigma) 1.0 mg/ml in 0.05M carbonate alkaline buffer pH9.6. The absorbance at 405 nm was then measured using a Multiscan plate reader (Labsystems Basingstoke UK).
Cytokine secretion was measured by interpolation from a standard curve generated by incubating duplicate wells with doubling dilutions of recombinant human IFN-γ or IL-10 or TGF-β (Pharmingen). The standard curves were modelled by a smoothed cubic spline function applied to the absorbance reading and the cytokine concentrations after a quasilogarithmic transformation, where: quasiloge(z)=loge[z+{square root}[z^2+1]).
Using celELISA technique, the 68 RhD peptide panel was screened for the ability to induce IL-10 and TGF-β production for PBMC from a total of 19 samples from 12 different alloimmune donors. PMBC from 10 out of the 12 RhD-alloimmunised donors could produce IL-10 to at least one of the RhD peptides on at least one occasion, with a total of 194 significant IL-10 responses to the RhD peptides between all the donors. The RhD peptides that induced significant TGF-β or IL-10 and proliferative responses from PBMC in all the samples screened are summarised in FIGS. 10 and 11.

Sequence | proliferative T-cell response to RhD peptides [1] | proliferative T-cell response to RhD peptides [2] | further results
AALILLFYFFTHYDA (Residue 22- 36 RhD; listed as Homo sapiens) [compound 3] | exhibited a proliferative response | – | –
ATIPSLSAMLGALFL (Residue 202-216 RhD; listed as Homo sapiens) [compound 33] | exhibited a proliferative response | – | –
CLPLWALTLEAALIL (Residues 12-26 RhD; listed as Homo sapiens) [peptide 2] | exhibited a proliferative response | most commonly targeted | –
FSLLGLLGEIIYIVL (Residue 332-346 RhD; listed as Homo sapiens) [compound 56] | – | most commonly targeted | IL-10 production by PBMC [3]: commonly induce the production of IL-10
FSLLGLLGEITYIVL (Residue 332-346 Rhce; listed as Homo sapiens) [compound 195] | – | – | proliferative T-cell response to ce peptides [1]: exhibited a proliferative response
GKVNLAQLVVMVLVE (Residue 132-146 RhD; listed as Homo sapiens) [compound 20] | exhibited a proliferative response | – | –
GLISVGGAKYLPGCC (Residue 302-316 RhD; listed as Homo sapiens) [compound 50] | exhibited a proliferative response | – | –
GTSCHLIPSPWLAMV (Residue 282-296 RhD; listed as Homo sapiens) [compound 47] | exhibited a proliferative response | – | –
GTSCHLIPSPWLAMV (Residue 282-296 Rhce; listed as Homo sapiens) [compound 186] | – | – | proliferative T-cell response to ce peptides [1]: exhibited a proliferative response
HSWSSVAFNLFMLAL (Residue 72-86 RhD; listed as Homo sapiens) [compound 10] | – | most commonly targeted | –
KGLVASYQVGQDLTV (Residue 42-56 Rhce; listed as Homo sapiens) [compound 144] | – | – | proliferative T-cell response to ce peptides [1]: exhibited a proliferative response
LAIVIALTSGLLTGL (Residue 372-386 RhD; listed as Homo sapiens) [compound 62] | exhibited a proliferative response | – | –
LGFLTSSFRRHSWSS (Residue 62-76 RhD; listed as Homo sapiens) [compound 8] | – | – | TGF-β1 production by PBMC [3]: commonly induce the production of TGF-β1
LGLVAGLISVGGAKY (Residue 297-311 RhD; listed as Homo sapiens) [compound 49] | – | – | IL-10 production by PBMC [3]: commonly induce the production of IL-10; also recorded: induce IL-10 production in the absence of a proliferative response or the production of IFN-γ or IL-4
LLTGLLLNLKIWKAP (Residue 382-396 RhD; listed as Homo sapiens) [compound 63] | – | most commonly targeted | –
SAVLAGGVAVGTSCH (Residue 272-286 RhD; listed as Homo sapiens) [peptide 46] | – | most commonly targeted | –
THYDASLEDQKGLVA (Residues 32-46 Rhce; listed as Homo sapiens) [compound 143] | – | – | proliferative T-cell response to ce peptides [1]: exhibited a proliferative response
TVAWCLPKPLPKGTE (Residue 182-196 Rhce; listed as Homo sapiens) [compound 168] | – | – | proliferative T-cell response to ce peptides [1]: exhibited a proliferative response
VTALGNLRMVISNIF (Residue 147 - 161 RhD; listed as Homo sapiens) [compound 22] | – | most commonly targeted | –
WLAMVLGLVAGLISV (Residue 292-306 RhD; listed as Homo sapiens) [peptide 48] | – | – | TGF-β1 production by PBMC [3]: commonly induce the production of TGF-β1; also recorded: induces TGF-β1 production in the absence of a proliferative response or the production of IFN-γ or IL-4
